pEC50, pIC50: −log10 of the molar value.
Legend:
[1] = system: TGF-β1-induced SMAD signaling pathway; test: RD SMAD reporter (RDSR) assay; assay type: cell-based; conditions: Homo sapiens; 200 pg/ml rhTGF-beta1, 24 h
From the text: TGF-beta (also referred to as TGF-β1) is a multifunctional, highly conserved cytokine with many key functions in development, cell growth and apoptosis, and plays a key role in the tissue repair response and functions as a potent immune modulator. TGF-β signaling is triggered when the activated TGF-β homodimer binds to the TGF-β receptor 2, which in turn leads to the recruitment and phosphorylation of TGF-β receptor 1 (ALK5). Activated TGF-β receptor 1 phosphorylates the signal transduction molecules SMAD2 and SMAD3. These bind to common mediator SMAD4 and translocate to the nucleus where they bind to short conserved DNA sequences called the SMAD binding element and induce the transcription of various target genes.
A stable cellular reporter, the RD SMAD reporter (RDSR), was generated to test the ability of certain compounds disclosed herein to inhibit the canonical TGF-β1-induced SMAD signaling pathway in a cellular context. The RD SMAD reporter (RDSR) cell line was generated by stably integrating the SMAD cellular reporter plasmid (Promega, pGL4.48[luc2P/SBE/Hygro]) into the human rhabdomyosarcoma cell line RD (ATCC, CCL-136). Once SMAD signaling was triggered with, for example, the addition of TGF-beta1, receptor-activated SMADs bind the SMAD binding elements (SBEs) leading to the expression of intracellular luciferase.
The rhabdomyosarcoma line RD (ATCC, CCL-136) was transfected with a SMAD reporter vector (Promega, E3671) and a polyclonal stable cell line was selected using hygromycin B. The transfected vector contained three copies of a Smad-binding element (SBE) that drives transcription of the luciferase reporter gene luc2P (Photinus pyralis). luc2P is a synthetically-derived luciferase sequence with humanized codon optimization that is designed for high expression and reduced anomalous transcription. The luc2P gene contains hPEST, a protein destabilization sequence, which allows luc2P protein levels to respond more quickly than those of luc2 to induction of transcription. The intracellular luciferase is quantified by the addition of equal volume (100 μl) of ONE-GLO substrate (Promega, E6120) and read within ten minutes on the Envision plate reader. The stable RDSR cell line was tested by evaluating the response to human TGF-beta1 (R&D Systems, 7754-BH-005) as well as myostatin (R&D Systems, 788-G8-010/CF) in a concentration-dependent manner after twenty-four hours of stimulation. […] For compound evaluation, the tool compounds (vactosertib and PF-06952229 (a TGFβR1 inhibitor available from MedChem Express HY-136244) were included as positive controls) or test compounds were incubated with cells for one hour at 37° C. then stimulated with 200 pg/ml rhTGF-beta1 for twenty-four hours. The activity of the reporter was determined with the addition of ONE-GLO (Promega) substrate, and luminescence counts were collected on the Envision plate reader (Perkin Elmer). The IC50 or EC50 was calculated using nonlinear regression curve fitting with graph pad prism software.
A comparative RDSR analysis was performed using IC50 values for selected compounds and standards obtained using the RDSR assay protocol described in Example 3.
The tool compounds vactosertib (an ALK5 inhibitor sourced from MedChem Express, HY-19928) and PF-06952229 (a TGFβR1 inhibitor) were included in the study as comparator compounds. Selected example compounds or comparator compounds were incubated with cells for one hour at 37° C. then stimulated with 200 pg/ml rhTGF-beta1 for twenty-four hours. The activity of the reporter was determined by adding ONE-GLO (Promega) substrate, and collecting luminescence counts on the Envision plate reader (Perkin Elmer).
Each of the example compounds and comparator compounds were tested at drug concentrations of from 20 micromolar to 1 nanomolar, and the IC50 value for each was calculated using Graph Pad Prism software. DMSO was used as a negative control and all wells contained normalized DMSO concentrations. […]

ALK5 = molecular target: T1, ALK5 (Homo sapiens, UniProt P36897); test: LanthaScreen Eu Kinase Binding Assay, ALK5; conditions: 10-point titration, read-out: Kinase Inhibition: ALK5 IC50 (Lantha)
T1 sequence (P36897 34-503): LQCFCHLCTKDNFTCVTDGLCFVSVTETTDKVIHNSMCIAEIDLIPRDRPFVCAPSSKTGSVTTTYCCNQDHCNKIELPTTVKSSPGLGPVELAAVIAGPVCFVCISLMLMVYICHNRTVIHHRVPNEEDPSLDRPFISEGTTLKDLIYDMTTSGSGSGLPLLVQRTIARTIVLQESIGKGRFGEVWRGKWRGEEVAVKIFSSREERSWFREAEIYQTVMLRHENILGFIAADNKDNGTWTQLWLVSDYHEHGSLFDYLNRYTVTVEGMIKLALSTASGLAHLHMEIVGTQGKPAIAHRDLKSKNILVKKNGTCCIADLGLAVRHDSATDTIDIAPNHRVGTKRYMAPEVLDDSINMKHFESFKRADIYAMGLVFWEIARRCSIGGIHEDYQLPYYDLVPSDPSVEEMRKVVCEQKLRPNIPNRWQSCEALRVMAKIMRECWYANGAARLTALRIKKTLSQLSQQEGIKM
Experimental: Selected compounds of the present disclosure were assayed for inhibitory activity against ALK5 and ALK2. Activity determinations and selectivity were conducted by Thermo Fisher Scientific SelectScreen™ Biochemical Kinase Profiling Service using their LanthaScreen™ Eu Kinase Binding Assay Screening.
Binding of an Alexa Fluor™ conjugate or “tracer” to a kinase is detected by addition of a Eu-labeled anti-tag antibody. Binding of the tracer and antibody to a kinase results in a high degree of FRET, whereas displacement of the tracer with a kinase inhibitor results in a loss of FRET. This assay is carried out by mixing the compound tested with the reagents and reading; no development step is required.
Life Technologies' Kinase Tracers are based on ATP-competitive kinase inhibitors, making them suitable for detection of any compounds that bind to the ATP site. Inhibitors that bind the ATP site include both Type I kinase inhibitors, which bind solely to the ATP site, and Type II inhibitors (e.g., Gleevec®/Imatinib, Sorafenib, BIRB-796), which bind to both the ATP site and a second site often referred to as the allosteric site.
The test compounds were screened in 1% DMSO (final) in the well. For 10-point titrations, 3-fold serial dilutions were conducted from the starting concentration (see Table 2 below).
All Kinase/Antibody Mixtures were diluted to a 2× working concentration in the specified kinase buffer. The 4× AlexaFluor labeled Tracer was prepared in Kinase Buffer.
• Bar-coded, low volume, white, 384-well plate (Greiner Cat. #784207) • 1. 160 nL—100× Test Compound in 100% DMSO • 2. 3.84 μL—Kinase Buffer • 3. 8.0 μL—2× Kinase/Antibody Mixture • 4. 4.0 μL—4× Tracer • 5. 30-second plate shake • 6. 60-minute incubation at room temperature • 7. Read on fluorescence plate reader and analysis of the data
The following controls were made for each individual kinase and were located on the same plate as the kinase:
100% Displacement Control: The minimum Emission Ratio was established by the 100% Displacement Control wells, which contained the highest concentration of the known inhibitor used in that assay.
Known Inhibitor: A known inhibitor control standard curve, 10-point titration, was run for each individual kinase on the same plate as the kinase to ensure the inhibitor was displaced within an expected IC50 range previously determined.
The following equations were used for each set of data points: […]
Data generated were plotted using the graphing software XLfit from IDBS. The dose response curve was curve fit to model number 205.

JAK signaling = test: JAK selectivity assay, HEK blue IL-12 reporter; assay type: cell-based; conditions: HEK-Blue, 24 h, 12.5 ng/ml IL-12, 24 h
Experimental: The cells were purchased from Invivogen (Catalog Nr: hkb-il12) and maintained according to vendor instructions. On the day of the experiment, cells were harvested by repeated tapping of the flask to shake loose the cells attached to the bottom of the flask. Then, cells were harvested, washed and resuspended in DMEM media supplemented with 10% fetal calf serum. 30 Microliters of cell suspension was seeded into a 384-well tissue culture-coated plate containing approximately 10,000 total cells. […] Using the ECHO “Dose Response” software, the test compound was added in duplicate wells with a 3-fold dilution curve. DMSO was back-filled to normalize the DMSO across all wells. […] After 30 minutes of incubation at room temperature, the optical density was measured at 620 nanometer using the Perkin Elmer Envision plate reader. A color change can be detected at this wavelength when secreted alkaline phosphatase, which is triggered by IL-12 signaling, is present in the supernatant. […]

A549 lung fibroblasts = test: Epithelial to mesenchymal transition gene expression in A549; assay type: cell-based; conditions: 5 ng/ml TGF-beta1, 48 h, up to 5 micromolar
Experimental: To evaluate whether Compounds 01 and 04 could inhibit epithelial to mesenchymal transition (EMT), an in vitro model using A549 lung fibroblasts was utilized. A549 cells were purchased from ATCC (CCL-185), and grown in RPMI media supplemented with 10 percent fetal bovine serum (FBS). On the day of the experiment, ten thousand A549 cells were seeded in eighty microliters total volume into a flat, tissue culture coated, ninety-six-well plate. Drugs, including positive control compounds vactosertib, PF-06952229 and LY3200882, were added in an eight point, one to three dilution series with the highest concentration of each drug being five micromolar, bringing the total volume of each well to ninety microliters. DMSO, which served to dissolve the 10 millimolar stock solution of each drug, was normalized across all wells After one hour of drug pretreatment, recombinant human TGF-beta1 was added to a final concentration of five nanograms per milliliter, bringing the volume to one hundred microliters. Recombinant human TGF-beta 1 was purchased from R&D Systems (7754-BH-005) and its stock solution was prepared according to manufacturer's instructions and diluted in RPMI media supplemented with 10% FBS. The ninety-six well plate with one hundred microliter volume was incubated at 37° C. at 5% CO2 for forty-eight hours. At the end of the incubation period, gene expression levels of various EMT markers were assessed using a custom designed QuantiGene Plex Gene Expression Assay. The genes chosen were CDH1 (E-cadherin), CDH2 (N-Cadherin), SNAI1 (Snail), SNAI2 (Slug), VIM (Vimentin), SPARC, GALNT6, CTNNB1 (beta-catenin), TGFB1, and MAML3.
Briefly, cell lysate was prepared using the QuantiGene Sample Processing Kit —Cultured Cells (QS0100) in the ninety-six well plate. Cell lysates were then subjected to bead hybridization, multiple probe hybridization steps and SAPE labeling following manufacturer's instruction. The plate was read on a Luminex MAGPIX instrument.

Structure (SMILES) | pEC50 [1] | pIC50 (ALK5) | pIC50 (JAK signaling) | CDH1 (E-Cadherin) gene expression (A549 lung fibroblasts) | expression of the nine genes induced with EMT (CDH2, SNAI1, SNAI2, VIM, SPARC, GALNT6, CTNNB1, TGFB1, MAML3) (A549 lung fibroblasts)
Cc1nn(CC(F)(F)F)cc1Nc1cc(Nc2cnnc3c(Cl)cccc23)ccn1 [Compound 02, N2-[3-methyl-1-(2,2,2-trifluoroethyl)-1H-pyrazol-4-yl]-N4-(8-chlorocinnolin-4-yl)pyridine-2,4-diamine] | 7.00 to 7.30 | > 8.30 | – | – | –
Cc1cccc2c(Nc3ccnc(Nc4cccc(N5CCOCC5)c4)c3)cnnc12 [Compound 03, N4-(8-methylcinnolin-4-yl)-N2-[3-(morpholin-4-yl)phenyl]pyridine-2,4-diamine] | > 7.30 | 8.30 to 8.70 | – | – | –
Cc1cccc2c(Nc3ccnc(Nc4ccc(N5CCN(C)CC5)cc4)c3)cnnc12 [Compound 06, N4-(8-methylcinnolin-4-yl)-N2-[4-(4-methylpiperazin-1-yl)phenyl]pyridine-2,4-diamine] | > 7.30 | 8.30 to 8.70 | – | – | –
Cc1cccc2c(Nc3ccnc(Nc4cccc(C5CCOCC5)c4)c3)cnnc12 [Compound 07, N4-(8-methylcinnolin-4-yl)-N2-[3-(oxan-4-yl)phenyl]pyridine-2,4-diamine] | 7.00 to 7.30 | 8.30 to 8.70 | – | – | –
Cc1cccc2c(Nc3ccnc(Nc4ccc(C5CCOCC5)cc4)c3)cnnc12 [Compound 08, N4-(8-methylcinnolin-4-yl)-N2-[4-(oxan-4-yl)phenyl]pyridine-2,4-diamine] | > 7.30 | 8.30 to 8.70 | – | – | –
Cc1cnc(Nc2ccc(OCCN3CCCC3)cc2)nc1Nc1cccc(S(=O)(=O)NC(C)(C)C)c1 [Fedratinib, fedratinib] | – | – | > 6.52 | – | –
CC(C)(O)c1cc(Nc2cc(Oc3cn(C4CC4)nc3C3CCOCC3)ccn2)ccn1 [LY3200882, reference compound] | – | – | – | inhibition of downregulation of CDH1 (E-Cadherin) | inhibition of induction of the nine genes that are induced with EMT
CC(C)c1cnc(-c2cc(Cl)ccc2F)cc1Nc1ccncc1C(=O)NC(CO)CO [PF-06952229, reference compound] | – | – | – | inhibition of downregulation of CDH1 (E-Cadherin) | inhibition of induction of the nine genes that are induced with EMT

Reference: patent US20240197729A1, “ALK-5 Inhibitors and Uses Thereof” (Sumitomo Pharma Oncology, Inc., priority 2021, published 2024)
